Test results from patent US20140037694A1, “ADJUVANT FOR TRANSDERMAL OR TRANSMUCOSAL ADMINISTRATION AND PHARMACEUTICAL PREPARATION CONTAINING SAME” (HISAMITSU PHARMACEUTICAL CO., INC., priority 2011, published 2014).
“Also recorded” adds a separate entry of the source.

How the values were obtained:
[1] = test system: OVA-specific IgG antibody titer; test: Microneedle (OVA) application + transdermal adjuvant application; OVA-specific IgG antibody titer by ELISA; format: in vivo, hairless rats; details: for IgG antibody titer / adjuvant effect (FIG. 5): Example 5; for IgG antibody titer / adjuvant effect (FIG. 5) / IgG antibody titer / adjuvant effect (FIG. 2): 120 μL stock solution, 6 hr after OVA microneedles; for IgG antibody titer / adjuvant effect (FIG. 5) / IgG antibody titer / adjuvant effect (FIG. 1) / IgG antibody titer / adjuvant effect (FIG. 2): titers after 5 weeks; for IgG antibody titer / adjuvant effect (FIG. 5) / IgG antibody titer / adjuvant effect (FIG. 1): compared to OVA alone; for IgG antibody titer / adjuvant effect (FIG. 1): Example 1, 120 μL stock solution on patch-test tape for 6 hr after OVA microneedles, dosing weeks 0, 2, 4; for IgG antibody titer / adjuvant effect (FIG. 2): Example 3, purified water control; for Adjuvant effect against anti-OVA IgG: titers after 4 weeks
[2] = test system: OVA-specific IgG antibody titer; test: as above; format: in vivo, hairless rats; details: Example 4
Experimental: (§1) Regarding (i) and (ii), OVA 20 μg/[…] (saline) was intradermally administered.

[3] = test system: OVA-specific IgG antibody titer; test: Intradermic injection (OVA) application + glycerin application; OVA-specific IgG antibody titer by ELISA; format: in vivo, hairless rats; details: Example 4; intradermal OVA 20 μg + glycerin co-used; after two weeks
Experimental: as §1

skin = test system: skin; parameters: Skin irritation score: key to the marks not given beside the values; details: rat, in vivo

In the case of `CCCCCCCC/C=C\CCCCCCCC(=O)OCC(O)CO` (stereo not shown) [GMO, monoglyceryl oleate], the “IgG antibody titer / adjuvant effect (FIG. 5)” value [1] is reported as “adjuvant effect similar to that of low molecules such as glycerin”.
In the case of `CC(O)CO` (stereo not shown) [PG, propylene glycol], the “IgG antibody titer / adjuvant effect (FIG. 5)” value [1] is reported as “strong adjuvant effect”.
`CC(=O)OCC(COC(C)=O)OC(C)=O` [triacetin] was tested, and the “IgG antibody titer / adjuvant effect (FIG. 5)” value [1] was “strong adjuvant effect”.
With `OCC(O)CO` [glycerin] the “Adjuvant effect (FIG. 3)” value ([2]; OVA by microneedles + glycerin 120 μL 6 hr, titers after 4 weeks, compared to intradermal injection of OVA) was “exhibited more clearly by the microneedle application”, the “IgG antibody titer time course (FIG. 4)” value ([2]; OVA microneedles with concomitant glycerin, from 2 weeks) was “increase the IgG antibody titer was observed” and the “IgG antibody (FIG. 4)” value [3] was “no IgG antibody was detected”. For the same molecule, the “IgG antibody titer / adjuvant effect (FIG. 1)” value [1] was “high adjuvant effect”, the “IgG antibody titer / adjuvant effect (FIG. 2)” value [1] was “adjuvant effect of the glycerin was confirmed” and the “IgG antibody titer / adjuvant effect (FIG. 5)” value [1] was “strong adjuvant effect”. For the same molecule, the “Adjuvant effect against anti-OVA IgG” value ([1]; Example 6, glycerin concentration 25%, 120 μL 6 hr) was “none”, the “Adjuvant effect against anti-OVA IgG” value ([1]; Example 6, glycerin concentration 75%, 120 μL 6 hr) was “excellent adjuvant effect was confirmed” and the “Adjuvant effect against anti-OVA IgG” value ([1]; Example 6, glycerin concentration 75%, 120 μL 6 hr, listed as Glycerin) was “present”. The “Adjuvant effect against anti-OVA IgG” value ([1]; Example 7, 100% glycerin applied 10 min after antigen administration by microneedles, 6 hr) was “apparent increase in the IgG antibody titer; also recorded: high IgG antibody titer”, the “Adjuvant effect against anti-OVA IgG” value ([1]; Example 7, 100% glycerin applied 10 min after antigen administration by microneedles, 6 hr, listed as Glycerin) was “present” and the “Adjuvant effect against anti-OVA IgG” value ([1]; Example 7, simultaneously with antigen, mixture of OVA/pullulan/41% glycerin on microneedles) was “no adjuvant effect was observed”. The “Adjuvant effect against anti-OVA IgG” value ([1]; Example 7, simultaneously with antigen, mixture of OVA/pullulan/41% glycerin on microneedles, listed as Glycerin) was “none” and the Adjuvant effect ([1]; glycerin concentration 100 wt %) was “particularly excellent adjuvant effect”.
For `CCO` [ethanol], the Skin irritation observation (skin) was “significant skin irritation accompanied by necrosis”, the Skin irritation score (skin) was “+++” and the “IgG antibody titer / adjuvant effect (FIG. 1)” value [1] was “high adjuvant effect”.
With `CC(C)=CCC/C(C)=C/CC/C(C)=C/CC/C=C(\C)CC/C=C(\C)CCC=C(C)C` [squalene, reference compound] the Skin irritation (skin) was “no skin irritation” and the “IgG antibody titer / adjuvant effect (FIG. 2)” value [1] was “low IgG antibody titer similar to the control”.
